Among the data in ChEMBL document CHEMBL6109044, “From challenges to solutions: A review of fourth-generation EGFR tyrosine kinase inhibitors to overcome the C797S triple mutation in non-small cell lung cancer” (Eur J Med Chem, 2025) are inhibition, IC50 and Activity values, retold here.

Assay [1] has as its system Epidermal growth factor receptor (Homo sapiens), P00533 [L858R,T790M,C797S]. The conditions noted are these: dose 1.0 nM.
Assay [2] shares this test system. The settings on record: dose 200.0 nM, tested as the 2H-labelled form.
The test system is the same in assay [3]. The settings on record: dose 0.05 nM.
For assay [4], the target named is T1, Epidermal growth factor receptor (Homo sapiens, UniProt P00533, C797S/L858R/T790M). Description: Inhibition of EGFR L858R/T790M/C797S triple mutant (unknown origin).
Assay [5] deals with Epidermal growth factor receptor (Homo sapiens, UniProt P00533, C797S/EX19DEL/T790M). Description: Inhibition of EGFR Del19/T790M/C797S triple mutant (unknown origin).
Assay [6] addresses T2, Epidermal growth factor receptor (Homo sapiens, UniProt P00533). The assay is described as follows: Inhibition of wild type EGFR (unknown origin).
Assay [7] has as its system NIH3T3. The assay is described as follows: Antiproliferative activity against mouse NIH3T3 cells harboring EGFR del19/T790M/C797S assessed as reduction in cell growth measured for 4 to 7 days by CellTiter-Glo Luminescent assay. In kind it is functional, cell-based.
In assay [8] the test system is NIH3T3. The assay is described as follows: Antiproliferative activity against mouse NIH3T3 cells harboring EGFR L858R/T790M/C797S assessed as reduction in cell growth measured for 4 to 7 days by CellTiter-Glo Luminescent assay. Format: functional, cell-based.
Assay [9] addresses T2, Epidermal growth factor receptor. The assay is described as follows: Inhibition of wild type EGFR (unknown origin) by HTRF assay.
Assay [10] is described as follows: Antiproliferative activity against mouse Ba/F3 EGFR-T790M/C797S/L858R cells assessed as reduction in cell growth incubated for 72 hrs by CCK-8 assay. Format: functional, cell-based.
The nature of assay [11]: Antiproliferative activity against mouse Ba/F3 EGFR-Del19/T790M/C797S cells assessed as reduction in cell growth incubated for 72 hrs by CCK-8 assay. Format: functional, cell-based.
Assay [12] is described as follows: Antiproliferative activity against mouse Ba/F3 EGFR-Del19/T790M/C797S cells. Format: functional, cell-based.
Assay [13] can be described thus: Antiproliferative activity against mouse Ba/F3 EGFR cells. Format: functional, cell-based.
The next assay is described as follows: cells. The settings on record: Mus musculus, Ba/F3 EGFR-T790M/C797S/L858R.
The next assay deals with A549. The assay is described as follows: Antiproliferative activity against human A549 cells. In kind it is functional, cell-based.
Assay [14] has as its target T1, Epidermal growth factor receptor. Description: Inhibition of EGFR L858R/T790M/C797S triple mutant (unknown origin) at 20 nM relative to control.
A short description of assay [15]: Antiproliferative activity against mouse Ba/F3 EGFR-Del19/T790M/C797S cells assessed as reduction in cell viability at 10 uM incubated for 72 hrs by MTT assay relative to control. In kind it is functional.
Assay [16] addresses Epidermal growth factor receptor (Homo sapiens, UniProt P00533, L858R/T790M). Description: Inhibition of EGFR L858R/T790M double mutant (unknown origin).
A short description of assay [17]: Antiproliferative activity against human NCI-H1975 EGFR T790M/C797S/L858R cells. In kind it is functional, cell-based.

Where only a bound is given, the exact number is not on record here.

T1 sequence (P00533 25-1210 T790M/C797S/L858R limits assumed): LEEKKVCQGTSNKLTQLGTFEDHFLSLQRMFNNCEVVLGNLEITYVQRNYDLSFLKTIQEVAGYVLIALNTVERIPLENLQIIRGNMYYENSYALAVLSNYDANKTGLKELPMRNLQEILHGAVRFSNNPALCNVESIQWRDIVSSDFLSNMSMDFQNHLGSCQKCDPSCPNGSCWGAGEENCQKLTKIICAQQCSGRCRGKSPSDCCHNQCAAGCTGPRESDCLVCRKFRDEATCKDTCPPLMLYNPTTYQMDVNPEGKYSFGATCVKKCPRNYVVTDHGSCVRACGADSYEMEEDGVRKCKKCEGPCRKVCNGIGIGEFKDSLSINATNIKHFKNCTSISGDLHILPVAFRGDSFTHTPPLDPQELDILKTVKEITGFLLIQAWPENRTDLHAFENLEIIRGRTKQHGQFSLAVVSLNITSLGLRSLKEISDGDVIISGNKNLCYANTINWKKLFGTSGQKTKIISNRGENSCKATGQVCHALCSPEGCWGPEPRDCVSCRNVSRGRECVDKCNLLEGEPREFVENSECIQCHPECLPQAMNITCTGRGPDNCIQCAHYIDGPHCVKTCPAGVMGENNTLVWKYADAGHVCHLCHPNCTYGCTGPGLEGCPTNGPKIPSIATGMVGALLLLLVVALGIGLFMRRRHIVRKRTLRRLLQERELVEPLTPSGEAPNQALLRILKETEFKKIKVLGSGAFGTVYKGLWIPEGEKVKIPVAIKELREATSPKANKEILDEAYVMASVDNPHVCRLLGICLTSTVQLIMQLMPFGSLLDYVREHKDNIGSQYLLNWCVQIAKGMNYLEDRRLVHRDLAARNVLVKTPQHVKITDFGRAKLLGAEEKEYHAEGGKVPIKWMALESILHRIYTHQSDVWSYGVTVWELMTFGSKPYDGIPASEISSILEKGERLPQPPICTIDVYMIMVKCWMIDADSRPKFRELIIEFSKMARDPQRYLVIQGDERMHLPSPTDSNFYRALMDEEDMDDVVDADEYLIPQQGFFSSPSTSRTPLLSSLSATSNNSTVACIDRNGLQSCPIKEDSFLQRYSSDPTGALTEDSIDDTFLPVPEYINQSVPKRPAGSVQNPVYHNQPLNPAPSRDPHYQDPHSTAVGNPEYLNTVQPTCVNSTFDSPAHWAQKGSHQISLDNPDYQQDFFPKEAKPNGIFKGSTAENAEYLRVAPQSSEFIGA
T2 sequence (P00533 whole entry): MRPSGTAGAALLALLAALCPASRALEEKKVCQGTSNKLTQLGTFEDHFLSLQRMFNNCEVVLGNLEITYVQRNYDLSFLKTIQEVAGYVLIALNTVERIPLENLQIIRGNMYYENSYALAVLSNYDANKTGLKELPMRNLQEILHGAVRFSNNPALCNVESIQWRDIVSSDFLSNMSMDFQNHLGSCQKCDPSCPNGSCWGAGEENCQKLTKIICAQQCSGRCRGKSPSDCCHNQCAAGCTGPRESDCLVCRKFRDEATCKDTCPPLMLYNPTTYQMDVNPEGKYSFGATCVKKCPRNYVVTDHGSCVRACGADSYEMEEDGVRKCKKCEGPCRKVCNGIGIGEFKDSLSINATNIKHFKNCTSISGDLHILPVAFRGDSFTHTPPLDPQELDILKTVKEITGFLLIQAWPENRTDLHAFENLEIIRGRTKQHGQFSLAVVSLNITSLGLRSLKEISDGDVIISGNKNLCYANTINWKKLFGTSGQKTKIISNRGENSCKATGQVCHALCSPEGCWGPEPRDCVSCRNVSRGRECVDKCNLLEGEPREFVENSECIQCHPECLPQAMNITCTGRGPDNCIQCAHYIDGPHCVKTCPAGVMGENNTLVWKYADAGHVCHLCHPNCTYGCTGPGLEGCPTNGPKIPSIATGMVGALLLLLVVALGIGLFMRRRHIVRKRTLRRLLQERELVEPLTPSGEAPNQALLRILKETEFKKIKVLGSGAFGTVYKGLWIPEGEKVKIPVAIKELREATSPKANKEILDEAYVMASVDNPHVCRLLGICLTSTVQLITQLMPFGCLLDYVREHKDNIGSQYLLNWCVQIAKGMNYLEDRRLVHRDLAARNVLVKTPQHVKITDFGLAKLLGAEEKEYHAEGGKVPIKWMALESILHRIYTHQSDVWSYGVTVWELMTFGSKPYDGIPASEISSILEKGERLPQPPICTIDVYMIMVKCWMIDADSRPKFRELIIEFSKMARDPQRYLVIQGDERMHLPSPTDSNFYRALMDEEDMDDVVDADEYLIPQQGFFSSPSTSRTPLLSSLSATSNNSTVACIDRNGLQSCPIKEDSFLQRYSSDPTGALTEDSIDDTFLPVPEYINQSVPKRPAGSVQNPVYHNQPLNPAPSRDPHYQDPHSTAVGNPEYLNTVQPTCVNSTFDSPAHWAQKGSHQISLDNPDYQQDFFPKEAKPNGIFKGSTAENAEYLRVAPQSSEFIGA
Sequence of Epidermal growth factor receptor (Homo sapiens), P00533 [L858R,T790M,C797S] (P00533 whole entry T790M/C797S/L858R): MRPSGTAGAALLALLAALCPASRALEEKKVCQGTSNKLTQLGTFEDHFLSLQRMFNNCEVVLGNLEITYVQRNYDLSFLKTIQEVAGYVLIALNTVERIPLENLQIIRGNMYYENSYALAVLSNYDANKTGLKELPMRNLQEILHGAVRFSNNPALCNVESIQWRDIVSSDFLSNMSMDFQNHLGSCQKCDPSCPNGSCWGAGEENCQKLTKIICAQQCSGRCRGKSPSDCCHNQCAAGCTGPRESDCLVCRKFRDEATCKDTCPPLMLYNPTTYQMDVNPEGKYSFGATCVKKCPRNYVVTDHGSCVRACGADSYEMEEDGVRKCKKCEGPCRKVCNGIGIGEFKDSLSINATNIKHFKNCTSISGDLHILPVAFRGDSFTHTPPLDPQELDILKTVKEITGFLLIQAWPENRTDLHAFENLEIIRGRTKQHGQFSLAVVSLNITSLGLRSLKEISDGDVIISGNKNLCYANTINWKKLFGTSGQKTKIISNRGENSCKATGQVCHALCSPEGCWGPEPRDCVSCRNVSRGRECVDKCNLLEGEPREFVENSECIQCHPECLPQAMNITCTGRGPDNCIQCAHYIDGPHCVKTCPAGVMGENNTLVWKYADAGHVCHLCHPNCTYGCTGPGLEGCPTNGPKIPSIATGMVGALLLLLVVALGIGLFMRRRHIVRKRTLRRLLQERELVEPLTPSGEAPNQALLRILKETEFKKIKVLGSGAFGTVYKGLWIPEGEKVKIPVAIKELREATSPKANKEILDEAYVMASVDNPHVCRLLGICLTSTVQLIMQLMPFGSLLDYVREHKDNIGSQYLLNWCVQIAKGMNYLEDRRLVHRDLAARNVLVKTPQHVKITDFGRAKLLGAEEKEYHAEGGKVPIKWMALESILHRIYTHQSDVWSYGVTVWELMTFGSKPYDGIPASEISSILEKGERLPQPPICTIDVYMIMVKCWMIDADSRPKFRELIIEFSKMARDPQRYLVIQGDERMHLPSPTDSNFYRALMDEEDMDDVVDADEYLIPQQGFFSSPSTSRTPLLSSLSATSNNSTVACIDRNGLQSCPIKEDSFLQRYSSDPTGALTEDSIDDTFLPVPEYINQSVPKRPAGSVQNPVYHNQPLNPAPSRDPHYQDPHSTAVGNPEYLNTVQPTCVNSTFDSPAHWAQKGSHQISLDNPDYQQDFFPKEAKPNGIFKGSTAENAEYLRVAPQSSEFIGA
Sequence of Epidermal growth factor receptor (Homo sapiens, UniProt P00533, C797S/EX19DEL/T790M) (P00533 whole entry, looked up, stated change not applied): as the sequence (P00533 whole entry) above

In the case of `Cc1cc(Nc2ncc(Br)c(Nc3ccccc3NS(=O)(=O)C3CC3)n2)ccc1N1CCN(C)CC1`, the inhibition in [1] (tested as the 2H-labelled form) amounted to 86.9%; in assay [2] it was 99%; in assay [3] (tested as the 2H-labelled form), 59%.
Regarding `COc1cc(N2CCC(N3CCN(C)CC3)CC2)ccc1Nc1ncc(Cl)c(Nc2ccccc2NS(C)(=O)=O)n1`, the IC50 was 8 nM in [4], 5 nM in [5] and 184 nM in [6].
Consider `CC(C)n1c2cc(Nc3ccnc(-c4cnn(S(=O)(=O)C5CC5)c4)n3)ncc2c2c(OCC(F)(F)F)cc(N3CCN(C)CC3)cc21`, for which the IC50 with NIH3T3 [7] turned out to be 20 nM; in assay [6], 0.92 nM; in the assay with NIH3T3 [8], 45 nM.
Consider `CCC(=O)Nc1cccc(-c2c(-c3ccc(N4CCN(C)CC4)cc3)[nH]c3ncnc(OCC(C)C)c23)c1`, for which the IC50 in assay [9] stood at 0.4 nM.
Turning to `N#Cc1ccc(O)c(-c2nc(NCc3cccnc3)c3ccccc3n2)c1`, the 50% inhibitory concentration (IC50) in assay [6] is above 50 nM.
In the case of `C=CC(=O)Nc1cc(Nc2nccc(-c3cn(C)c4ccccc34)n2)c(OC)cc1N(C)CCN(C)C` [OSIMERTINIB], the 50% inhibitory concentration (IC50) with NIH3T3 [7] is 1200 nM; in assay [10] it was 4140 nM; in assay [11], 3380 nM; in assay [12] it was above 1000 nM; in assay [13] it was 171 nM; in the assay on NIH3T3 [8], 2700 nM. This compound yielded a 50% inhibitory concentration (IC50) in “cells” above 1000 nM.
For the compound `[2H]C([2H])([2H])c1cc(Nc2ncc(Br)c(Nc3ccccc3NS(=O)(=O)C3CC3)n2)ccc1N1CCN(C([2H])([2H])[2H])CC1`, the IC50 in the assay on A549 was 957 nM; in assay [12], 12 nM; in the assay “cells” it was 16 nM. The compound further had an inhibition in [14] of 97.2%.
Consider `Oc1ccccc1-c1nc(NCC2CCOC2)c2ccccc2n1` (stereo not drawn), for which, in assay [15], the Activity came out at 91%.
As for `C=CC(=O)C1CCC[C@@H](n2nc(-c3ccc4ccccc4c3)c3c(N)ncnc32)C1` (stereo partly drawn), the IC50 in assay [4] stood at 88 nM; in assay [6], 16 nM.
For `COc1cc(N2CCC(N3CCN(C)CC3)CC2)ccc1Nc1ncc(Cl)c(Nc2ccccc2P(C)(C)=O)n1` [BRIGATINIB], the inhibition in [1] came out at 57%; in assay [3], 4.82%. Besides, the IC50 turned out to be 139 nM in assay [12] and 15.6 nM in the assay “cells”.
As for `CN1CCN(c2ccc(Nc3ncc(Cl)c(Nc4ccccc4P(C)(C)=O)n3)cc2Br)CC1`, the IC50 in [10] came out at 90 nM; in assay [11] it was 120 nM.
In the case of `CN1CCC(c2ccc(-c3ccc4c(c3)C(=O)N(C(C(=O)Nc3nccs3)c3cc(F)ccc3O)C4)cc2)CC1` (stereo not drawn), the IC50 in assay [4] came out at 0.083 nM; in assay [16], 0.063 nM.
Compound `N#Cc1ccc(O)c(-c2nc(NCc3ncccn3)c3ccccc3n2)c1` displayed an IC50 in assay [17] of 1200 nM.
Regarding `CCC(=O)N[C@H]1CC[C@@H](N2C(=O)N(c3ccccc3Cl)Cc3cnc(Nc4ccc(N5CCN(C)CC5)c(C)c4)nc32)CC1`, the IC50 in assay [10] is 320 nM.
Regarding `CCc1cc(Nc2ncc(Cl)c(Nc3ccc(C)c(C)c3P(C)(C)=O)n2)c(OC)cc1N1CC2(CCN(C)CC2)C1`, the 50% inhibitory concentration (IC50) in [12] is 128 nM; in [13], above 1000 nM; in “cells” it was 43.3 nM.
